Experimental data: patent US8084399B2, “Process for screening of a binding amphiphilic peptides specific for hairpin RNA” (priority 2009, dated 2011)
Where no end group is shown, it is not given here. [ ]: non-standard residue; d: D form. Orn = NCCC[C@H](N)C(=O)O; Dab = NCC[C@H](N)C(=O)O; Dap = NC[C@H](N)C(=O)O

Tests used:
[1] = molecular target: RRE hairpin RNA; assay: Fluorescence anisotropy competition with Rev-N-rhodamine probe, binding to RRE hairpin RNA; design: species or system HIV; settings: 20° C., pH 7.4, read-out: Dissociation constant, RRE
Description: (§1) Binding force to each target hairpin RNA (IRES, RRE, TAR and 16S A-site) was measured by fluorescence polarization using alanine scanned peptide library (1b-1h).
(§2) Particularly, […] of each target RNA was prepared at the concentration of 10 mM, which stood at 65° C. for 10 minutes and then cooled down slowly at room temperature, leading to folding. The amphiphilic peptide was prepared respectively at the concentration of […], which were maintained at 0° C. As a probe, rev peptide labeled with rhodamine (Rev-N-rhodamine) emitting […] fluorescence was prepared at the concentration of 10 mM. Buffer was composed of 140 mM NaCl, 5 mM KCl, 1 mM MgCl2, and 20 mM HEPES (N-2-Hydroxyethylpiperazine-N′-2-Ethanesulfonic Acid, pH 7.4). Fluorescence Anisotropy was measured using AMINCO-Bowman Series Luminescence Spectrometer at 20° C. Ten nM of the probe was added in […] of buffer, to which target RNA was added to induce interaction between the probe and the target RNA. At that time, anisotropy value increased. Then, the synthesized peptide competing with the probe for binding site was added thereto with increasing the concentration slowly. Changes of fluorescence polarization were measured until fluorescence polarization reached as low as the beginning. Considering the concentration and amount of the peptide added, binding force to target RNA was calculated. That is, the binding strength between target RNA and peptide was determined according to the following KaleidaGraph. [Peptide]=Kd(Amax−A)/[Kd(A−A0)+1]×[RNA]−Kd(A−A0)^2[Probe]0/(Amax−A)(Amax−A0)
(§3) Herein, [Peptide] indicates the concentration of peptide, [RNA] indicates the concentration of target RNA, and [Probe]0 indicates the concentration of probe. A is the value of fluorescence anisotropy of sample, Amax is the value of totally bound tracer, and A0 is the value of totally free tracer.

[2] = molecular target: TAR hairpin RNA; assay: Fluorescence anisotropy competition with Rev-N-rhodamine probe, binding to TAR hairpin RNA; design: species or system HIV; settings: for Kd: fluorescence anisotropy, 20° C., pH 7.4, read-out: Dissociation constant, TAR
Description: as §1, §2, §3

[3] = molecular target: 16S ribosomal RNA A-site; assay: Fluorescence anisotropy competition with Rev-N-rhodamine probe, binding to 16S A-site; settings: 20° C., pH 7.4, read-out: Dissociation constant, 16S A-site
Description: as §1, §2, §3

[4] = tested on: IRES domain IV hairpin; assay: Fluorescence anisotropy competition with Rev-N-rhodamine probe, binding to IRES hairpin; design: species or system HCV; settings: for differentiation coefficient (IRES): (mean Kd to other hairpin RNA)/(Kd to one hairpin RNA); for Kd: fluorescence anisotropy, 20° C., pH 7.4, read-out: Dissociation constant, IRES; for binding strength to IRES, in words: compared with the original peptide
Description: as §1, §2, §3

[5] = Circular dichroism (CD), percentage of alpha-helix; type: physicochemical; settings: CD at 20° C., condition not given; for Alpha-helical rate (%), second value of pair: value after the slash; for Alpha-helical rate (%), first value of pair: value before the slash
Description: To investigate alpha-helix of the amphiphilic peptide (1a-1h), circular dichroism (CD) was performed. Particularly, CD was measured at 20° C. by using JASCO model J715 spectropolarimeter. Scanning was performed at 190-250 nm three times (bandwidth: 1 nm, datapitch: 0.5 nm, speed: 100 nm/min), which were averaged to obtain CD data. Spectrum was corrected by measuring background spectrum. CD signal was recorded after modulating thereof with mean residue ellipticity [Q]. Percentage (%) of alpha-helix(fn) was calculated by the following formula. [Q]=Qobs[MRW/(10lc)]
MRW=mean residue weight (dividing molecular weight by the number of peptide bond, l=pathway length (cm), c=concentration (mg/mL). fn=([Q]222−[Q]coil)/([Q]helix−[Q]coil) [Q]helix=−40,000[…]+100t [Q]coil=640−45t
[Q]222=mean residue ellipticity at 222 nm (deg cm2 mol-1), [Q]helix=ellipticity of peptide having complete helical structure, [Q]coil=ellipticity of peptide having complete random coil structure, n=number of amino acid, t=° C.

Substance | Kd [1] | Kd [2] | Kd [3] | differentiation coefficient (IRES) [4] | Kd [4] | Alpha-helical rate (%), second value of pair [5] | Alpha-helical rate (%), first value of pair [5] | binding strength to TAR, in words ([2]; compared with the original peptide) | binding strength to IRES, in words [4]
LKKLLDapLLKKLLKLAG (LKKLL[Dap]LLKKLLKLAG-NH2; N-terminus assumed; SMILES CC(C)C[C@H](NC(=O)[C@H](CCCCN)NC(=O)[C@H](CC(C)C)NC(=O)[C@H](CC(C)C)NC(=O)[C@H](CCCCN)NC(=O)[C@H](CCCCN)NC(=O)[C@H](CC(C)C)NC(=O)[C@H](CC(C)C)NC(=O)[C@H](CN)NC(=O)[C@H](CC(C)C)NC(=O)[C@H](CC(C)C)NC(=O)[C@H](CCCCN)NC(=O)[C@H](CCCCN)NC(=O)[C@@H](N)CC(C)C)C(=O)N[C@@H](C)C(=O)NCC(N)=O) [2c, second generation peptide, hydrophilic face modified] | 9.6 nM | 5.7 nM | 12 nM | 2.4 | 3.8 nM | 61% | 26% | – | –
LKKLLKLLKKLLDapWAG (LKKLLKLLKKLL[Dap]WAG-NH2; N-terminus assumed; SMILES CC(C)C[C@H](NC(=O)[C@H](CC(C)C)NC(=O)[C@H](CCCCN)NC(=O)[C@H](CCCCN)NC(=O)[C@H](CC(C)C)NC(=O)[C@H](CC(C)C)NC(=O)[C@H](CCCCN)NC(=O)[C@H](CC(C)C)NC(=O)[C@H](CC(C)C)NC(=O)[C@H](CCCCN)NC(=O)[C@H](CCCCN)NC(=O)[C@@H](N)CC(C)C)C(=O)N[C@@H](CN)C(=O)N[C@@H](Cc1c[nH]c2ccccc12)C(=O)N[C@@H](C)C(=O)NCC(N)=O) [3g, third generation peptide, both faces modified] | 11 nM | 5.9 nM | 17 nM | 9.4 | 1.2 nM | 63% | 41% | – | –
LKKLLDabWLKKLLKLAG (LKKLL[Dab]WLKKLLKLAG-NH2; N-terminus assumed; SMILES CC(C)C[C@H](NC(=O)[C@H](CCCCN)NC(=O)[C@H](CC(C)C)NC(=O)[C@H](CC(C)C)NC(=O)[C@H](CCCCN)NC(=O)[C@H](CCCCN)NC(=O)[C@H](CC(C)C)NC(=O)[C@H](Cc1c[nH]c2ccccc12)NC(=O)[C@H](CCN)NC(=O)[C@H](CC(C)C)NC(=O)[C@H](CC(C)C)NC(=O)[C@H](CCCCN)NC(=O)[C@H](CCCCN)NC(=O)[C@@H](N)CC(C)C)C(=O)N[C@@H](C)C(=O)NCC(N)=O) [3a, third generation peptide, both faces modified] | 22 nM | 19 nM | 13 nM | 10 | 1.8 nM | 55% | 29% | – | –
LKKLLKLLOrnKLLKWAG (LKKLLKLL[Orn]KLLKWAG-NH2; N-terminus assumed; SMILES CC(C)C[C@H](NC(=O)[C@H](CC(C)C)NC(=O)[C@H](CCCCN)NC(=O)[C@H](CCCN)NC(=O)[C@H](CC(C)C)NC(=O)[C@H](CC(C)C)NC(=O)[C@H](CCCCN)NC(=O)[C@H](CC(C)C)NC(=O)[C@H](CC(C)C)NC(=O)[C@H](CCCCN)NC(=O)[C@H](CCCCN)NC(=O)[C@@H](N)CC(C)C)C(=O)N[C@@H](CCCCN)C(=O)N[C@@H](Cc1c[nH]c2ccccc12)C(=O)N[C@@H](C)C(=O)NCC(N)=O) [3f, third generation peptide, both faces modified] | 3.6 nM | 4.7 nM | 10 nM | 1.0 | 6.1 nM | 58% | 36% | – | –
LAKLLKLLKKLLKLKG [1b, alanine scanned first generation peptide] | 140 nM | 16 nM | 160 nM | 2.0 | 53 nM | 44% | 9% | – | –
LKKLLALLKKLLKLKG [peptide 1d, alanine scanned first generation peptide] | 150 nM | 150 nM | 160 nM | 1.0 | 150 nM | 47% | 12% | three fold binding strength | reduced binding strength
LKKLLKLLKKLLKLAG [1h, alanine scanned first generation peptide] | 25 nM | 63 nM | 53 nM | 0.96 | 49 nM | 43% | 9% | – | –
LKKLLKLLKKLLALKG [1g, alanine scanned first generation peptide] | 90 nM | 39 nM | 200 nM | 0.47 | 210 nM | 44% | 8% | – | reduced binding strength
LKKLLDabLLKKLLKWAG (LKKLL[Dab]LLKKLLKWAG-NH2; N-terminus assumed; SMILES CC(C)C[C@H](NC(=O)[C@H](CC(C)C)NC(=O)[C@H](CCCCN)NC(=O)[C@H](CCCCN)NC(=O)[C@H](CC(C)C)NC(=O)[C@H](CC(C)C)NC(=O)[C@H](CCN)NC(=O)[C@H](CC(C)C)NC(=O)[C@H](CC(C)C)NC(=O)[C@H](CCCCN)NC(=O)[C@H](CCCCN)NC(=O)[C@@H](N)CC(C)C)C(=O)N[C@@H](CCCCN)C(=O)N[C@@H](Cc1c[nH]c2ccccc12)C(=O)N[C@@H](C)C(=O)NCC(N)=O) [3e, third generation peptide, both faces modified] | 22 nM | 14 nM | 16 nM | 28 | 0.62 nM | 45% | 39% | – | –
LKKLLKLWKKLLKLAG [2r, tryptophan scanned second generation peptide] | 37 nM | 82 nM | 65 nM | 0.75 | 92 nM | 59% | 14% | – | –
LKKLLDabLLOrnKLLKLAG (LKKLL[Dab]LL[Orn]KLLKLAG-NH2; N-terminus assumed; SMILES CC(C)C[C@H](NC(=O)[C@H](CCCCN)NC(=O)[C@H](CC(C)C)NC(=O)[C@H](CC(C)C)NC(=O)[C@H](CCCCN)NC(=O)[C@H](CCCN)NC(=O)[C@H](CC(C)C)NC(=O)[C@H](CC(C)C)NC(=O)[C@H](CCN)NC(=O)[C@H](CC(C)C)NC(=O)[C@H](CC(C)C)NC(=O)[C@H](CCCCN)NC(=O)[C@H](CCCCN)NC(=O)[C@@H](N)CC(C)C)C(=O)N[C@@H](C)C(=O)NCC(N)=O) [2j, second generation peptide, hydrophilic face modified] | 21 nM | 10 nM | 14 nM | 6.3 | 2.4 nM | 57% | 49% | – | –
LKKLLKLLKKLLKLKG [1a, original amphiphilic 16-mer peptide] | 22 nM | 66 nM | 100 nM | 1.4 | 45 nM | 57% | 26% | – | –
